Laboratory results as given in patent publication US20250170130A1, “MODULATORS OF MYC FAMILY PROTO-ONCOGENE PROTEIN” (Nalo Therapeutics, priority 2022, published 2025).

What was measured:
MycN = target: T1, MycN (Homo sapiens, UniProt P04198); assay: Degradation of MycN protein in SK-N-BE(2) cells, JESS/Western blot of lysates; assay type: cell-based; settings: SKNBE2, 24 h, SKNBE2 cells, 24 h; for Dmax at 0.5 µM: read-out: % Degradation of MycN (SKNBE2) 24 h, 0.5 μM; for Dmax at 1 µM: read-out: % Degradation of MycN (SKNBE2) 24 h, 1 μM; for Dmax at 3 µM: read-out: % Degradation of MycN (SKNBE2) 24 h, 3 μM; for Dmax at 6 µM: read-out: % Degradation of MycN (SKNBE2) 24 h, 6 μM
T1 construct: endogenous in cells; host or cells: SK-N-BE(2)
T1 sequence (P04198 1-464): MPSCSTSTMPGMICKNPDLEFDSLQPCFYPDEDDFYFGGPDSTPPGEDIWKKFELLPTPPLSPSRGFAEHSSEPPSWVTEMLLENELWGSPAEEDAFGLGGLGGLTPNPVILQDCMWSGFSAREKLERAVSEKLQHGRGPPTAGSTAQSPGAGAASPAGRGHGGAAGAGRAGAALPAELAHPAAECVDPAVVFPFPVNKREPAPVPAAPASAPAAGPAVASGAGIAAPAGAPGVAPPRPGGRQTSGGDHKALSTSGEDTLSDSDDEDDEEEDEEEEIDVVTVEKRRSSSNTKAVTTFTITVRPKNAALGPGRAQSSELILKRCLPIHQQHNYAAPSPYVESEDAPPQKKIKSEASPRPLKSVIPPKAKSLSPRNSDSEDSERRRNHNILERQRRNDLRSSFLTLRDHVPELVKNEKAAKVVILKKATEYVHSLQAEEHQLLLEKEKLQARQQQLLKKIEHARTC
Outline: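 SK-N-BE(2) adherent cells (5E5 per well of a 6 well dish) were grown 24 hrs, then exposed to compounds diluted 1 in 20 in media, with DMSO controls, for 24 hrs. Cells were scraped, pelleted, PBS washed and lysed in RIPA buffer cocktail; after BCA protein quantitation, n-myc was detected by chemiluminescence on JESS/Western blot with tubulin and GAPDH loading controls read in the near infra red channel.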

MycC = target: T2, MycC (Homo sapiens, UniProt P01106); assay: Degradation of MycC protein in L363 cells, JESS/Western blot of lysates; assay type: cell-based; settings: L-363, 24 h, L-363 cells, 24 h; for Dmax at 3 µM: read-out: % Degradation of MycC (L-363) 24 h, 3 μM; for Dmax at 6 µM: read-out: % Degradation of MycC (L-363) 24 h, 6 μM; for Dmax at 1 µM: read-out: % Degradation of MycC (L-363) 24 h, 1 μM
T2 construct: endogenous in cells; host or cells: L363
Outline: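 L363 suspension cells were seeded at 1E6 cells per well and exposed to compound (stock 10 mM in DMSO) for 24 hrs. Cells were collected, spun down, rinsed with PBS, lysed in RIPA buffer cocktail on ice, clarified and kept at −80 degrees. Lysate protein was quantified by BCA, and c-myc was measured on JESS by chemiluminescence with tubulin and GAPDH loading controls in the NIR channel.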

T2 sequence (P01106 whole entry): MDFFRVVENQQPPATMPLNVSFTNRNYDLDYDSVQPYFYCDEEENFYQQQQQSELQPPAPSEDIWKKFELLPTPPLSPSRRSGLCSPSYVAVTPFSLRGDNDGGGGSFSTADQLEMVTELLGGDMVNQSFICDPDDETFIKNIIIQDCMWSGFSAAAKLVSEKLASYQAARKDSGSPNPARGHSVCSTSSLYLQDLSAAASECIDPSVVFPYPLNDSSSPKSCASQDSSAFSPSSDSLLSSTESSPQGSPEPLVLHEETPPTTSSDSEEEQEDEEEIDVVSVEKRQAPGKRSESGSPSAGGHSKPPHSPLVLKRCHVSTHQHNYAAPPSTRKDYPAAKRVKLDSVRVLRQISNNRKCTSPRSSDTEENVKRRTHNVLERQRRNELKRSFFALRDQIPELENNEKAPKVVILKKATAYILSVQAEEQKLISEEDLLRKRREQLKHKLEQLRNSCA

Dmax at 0.5 µM (MycN) [%]	Dmax at 1 µM (MycN) [%]	Dmax at 3 µM (MycN) [%]	Dmax at 6 µM (MycN) [%]	Dmax at 3 µM (MycC) [%]	Dmax at 6 µM (MycC) [%]	Dmax at 0.5 µM (MycC; 0.5 μM, read-out: % Degradation of MycC (L-363) 24 h, 0.5 μM) [%]	Dmax at 1 µM (MycC) [%]	SMILES
20 to 49	50 to 79	80 to 100	80 to 100	80 to 100	80 to 100	–	–	CNCC12CC(C1)N(c1nc3c(c(Nc4cc(C5CCCC5)[nH]n4)n1)CCC3)C2 [Compound 183, N-(5-Cyclopentyl-1H-pyrazol-3-yl)-2-[4-(methylaminomethyl)-2-azabicyclo[2.1.1]hexan-2-yl]-6,7-dihydro-5H-cyclopenta[d]pyrimidin-4-amine]
20 to 49	20 to 49	20 to 49	50 to 79	20 to 49	50 to 79	< 20	20 to 49	NC[C@H]1CN(c2nccc(Nc3cc(C4CCCC4)[nH]n3)n2)CCO1 [Compound 187, 2-[(2S)-2-(Aminomethyl)morpholin-4-yl]-N-(5-cyclopentyl-1H-pyrazol-3-yl)pyrimidin-4-amine]
< 20	20 to 49	80 to 100	80 to 100	50 to 79	80 to 100	–	< 20	CNC[C@H]1CN(c2nccc(Nc3cc(C4CC4)[nH]n3)n2)C[C@H]1F [Compound 191, N-(5-Cyclopropyl-1H-pyrazol-3-yl)-2-[(3S,4S)-3-fluoro-4-(methylaminomethyl)pyrrolidin-1-yl]pyrimidin-4-amine]
